{
  "source": "patent US20020061888A1",
  "about": "“Combination therapy for the prophylaxis and treatment of hyperlipidemic conditions and disorders” (priority 2000, published 2002)",
  "test_system": "Male beagle dogs",
  "experiment": "Serum total cholesterol in beagle dogs (serum lipid measurements)",
  "format": "in vivo",
  "details": "for SERUM TOTAL CHOLESTEROL / TOTAL SERUM CHOLESTEROL: n = 6; for decrease in serum total cholesterol concentration: compared to vehicle",
  "description": "Male beagle dogs (9-10 kg) obtained from Marshall farms were fed a normal chow diet once a day for a two hour interval and given water ad libitum. Prior to initiating treatment, the dogs were weighed and blood samples were drawn from the cephalic vein of each dog following an overnight fast to evaluate pretreatment serum total cholesterol levels at the start of the study. […] All doses were administered in gelatin capsules per os to each dog between 9:00-9:30 a.m. prior to feeding. All animals were fed between 9:30-10:00 a.m. and were allowed two hours to eat, at which time any remaining food was removed. […] Animals were dosed daily for three weeks and blood samples were taken at the end of each week after an overnight fast for comparison with pretreatment serum total cholesterol levels. Three consecutive 24 hour fecal samples were collected for each group during the last 72 hours of each week and used to measure the concentration of fecal biles acids excreted during that time period.\nBlood was collected from the cephalic vein of each dog into serum separator tubes. The blood was centrifuged at 900×g for 20 minutes at room temperature and the serum decanted. All analyses were performed on a Cobas Mira Clinical Analyzer System (Roche Diagnostic Systems, Branchburg, N.J.) using Roche Diagnostic reagents for enzymatic determinations of serum cholesterol. Commercial calibrator and quality control materials were analyzed with each run to verify assay accuracy and precision. A two-tailed, paired Students t-test was used to determine the statistical significance of changes in serum total cholesterol in treated dogs compared to pretreatment values. A one-way analysis of variance (“ANOVA”) was used to compare each pair of treatment groups to determine the statistical significance of changes in serum total cholesterol.\nBeagle dogs also were administered pravastatin to evaluate the monotherapeutic effect of pravastatin on serum total cholesterol.\nMale beagle dogs (9-10 kg) obtained from Marshall farms were fed once a day for two hours and given water ad libitum. Prior to initiating treatment, blood samples were drawn from the cephalic vein of each dog to evaluate pretreatment total serum cholesterol levels at the start of the study.\nFor the dose ranging study, the dogs were assigned to one of five groups based on mean body weights and serum total cholesterol levels. Each group received one of the following dosages: (1) vehicle (empty capsule, afternoon dosing), (2) 3.0 mg/kg/day pravastatin (afternoon dosing), (3) 10 mg/kg/day pravastatin (afternoon dosing), (4) 30 mg/kg/day pravastatin (afternoon dosing), and (5) 10 mg/kg/day pravastatin (morning dosing). One capsule containing pravastatin was administered per os to each dog between 9:00-9:30 a.m. prior to feeding for the 10 mg/kg/day morning dosing group and between 2:30-3:00 p.m. for the afternoon dosing groups. All animals were fed between 9:30-10:00 a.m. and were allowed two hours to eat, at which time any remaining food was removed. […] Animals were dosed daily for four weeks and blood samples were taken at the end of each week after an overnight fast for comparison with pretreatment serum total cholesterol levels.\nFollowing this initial four week dose-ranging study, dogs from the two groups receiving 10 mg/kg/day pravastatin (a.m. and p.m. dosing groups) were randomized into two new treatment groups based on serum total cholesterol levels to initiate the combination treatment study. […] Dosing continued in this manner for an additional four weeks (Weeks 5-8) with blood and 48-hour fecal samples collected at the end of each week for serum lipid measurements and fecal bile acid determinations, respectively.",
  "note": "Values joined by “and” are separate entries in the source; they are usually repeats but may differ in a detail not shown here. Equal values may be shown once. Marks after values point to notes of the source that are not given here.",
  "data": [
    {"smiles": "CCCCC1(CC)CS(=O)(=O)c2ccc(N(C)C)cc2[C@@H](c2cccc(OCc3ccc(C[N+]45CCN(CC4)CC5)cc3)c2)[C@H]1O.[Cl-]", "note": "(stereo partly drawn) [Compound A-5]", "values": [
      {"measurement": "% change in serum total cholesterol compared to the pretreatment value of each group", "setting": "compound A-5 0.22 mg/kg/day per os, Week 1", "result": "(−9) %"},
      {"measurement": "SERUM TOTAL CHOLESTEROL", "setting": "compound A-5 0.22 mg/kg/day per os, Week 1, mean ± SEM", "result": "140 ± 10^3 mg/dL"},
      {"measurement": "% change in serum total cholesterol compared to the pretreatment value of each group", "setting": "compound A-5 0.22 mg/kg/day per os, Week 2", "result": "(−7) %"},
      {"measurement": "SERUM TOTAL CHOLESTEROL", "setting": "compound A-5 0.22 mg/kg/day per os, Week 2, mean ± SEM", "result": "143 ± 11", "unit": "mg/dL"},
      {"measurement": "% change in serum total cholesterol compared to the pretreatment value of each group", "setting": "compound A-5 0.22 mg/kg/day per os, Week 3", "result": "(−10) %"},
      {"measurement": "SERUM TOTAL CHOLESTEROL", "setting": "compound A-5 0.22 mg/kg/day per os, Week 3, mean ± SEM", "result": "138 ± 11^3 mg/dL"},
      {"measurement": "decrease in serum total cholesterol concentration", "setting": "compound A-5 0.22 mg/kg/day, one week of treatment", "result": 9, "unit": "%"},
      {"measurement": "decrease in serum total cholesterol concentration", "setting": "compound A-5 0.22 mg/kg/day, three weeks of treatment", "result": 10, "unit": "%"},
      {"measurement": "% change in serum total cholesterol compared to the pretreatment value of each group", "setting": "compound A-5 0.66 mg/kg/day per os, Week 1", "result": "(−7) %"},
      {"measurement": "SERUM TOTAL CHOLESTEROL", "setting": "compound A-5 0.66 mg/kg/day per os, Week 1, mean ± SEM", "result": "145 ± 9", "unit": "mg/dL"},
      {"measurement": "% change in serum total cholesterol compared to the pretreatment value of each group", "setting": "compound A-5 0.66 mg/kg/day per os, Week 2", "result": "(−4) %"},
      {"measurement": "SERUM TOTAL CHOLESTEROL", "setting": "compound A-5 0.66 mg/kg/day per os, Week 2, mean ± SEM", "result": "149 ± 8", "unit": "mg/dL"},
      {"measurement": "% change in serum total cholesterol compared to the pretreatment value of each group", "setting": "compound A-5 0.66 mg/kg/day per os, Week 3", "result": "(−6) %"},
      {"measurement": "SERUM TOTAL CHOLESTEROL", "setting": "compound A-5 0.66 mg/kg/day per os, Week 3, mean ± SEM", "result": "146 ± 8", "unit": "mg/dL"},
      {"measurement": "decrease in serum total cholesterol concentration", "setting": "compound A-5 0.66 mg/kg/day, one week of treatment", "result": 7, "unit": "%"},
      {"measurement": "decrease in serum total cholesterol concentration", "setting": "compound A-5 0.66 mg/kg/day, three weeks of treatment", "result": 6, "unit": "%"},
      {"measurement": "% change in serum total cholesterol compared to the pretreatment value of each group", "setting": "compound A-5 2.0 mg/kg/day per os, Week 1", "result": "(−12) %"},
      {"measurement": "SERUM TOTAL CHOLESTEROL", "setting": "compound A-5 2.0 mg/kg/day per os, Week 1, mean ± SEM", "result": "137 ± 10^3 mg/dL"},
      {"measurement": "% change in serum total cholesterol compared to the pretreatment value of each group", "setting": "compound A-5 2.0 mg/kg/day per os, Week 2", "result": "(−15) %"},
      {"measurement": "SERUM TOTAL CHOLESTEROL", "setting": "compound A-5 2.0 mg/kg/day per os, Week 2, mean ± SEM", "result": "133 ± 11^3 mg/dL"},
      {"measurement": "% change in serum total cholesterol compared to the pretreatment value of each group", "setting": "compound A-5 2.0 mg/kg/day per os, Week 3", "result": "(−13) %"},
      {"measurement": "SERUM TOTAL CHOLESTEROL", "setting": "compound A-5 2.0 mg/kg/day per os, Week 3, mean ± SEM", "result": "136 ± 10^3 mg/dL"},
      {"measurement": "decrease in serum total cholesterol concentration", "setting": "compound A-5 2.0 mg/kg/day, one week of treatment", "result": 12, "unit": "%"},
      {"measurement": "decrease in serum total cholesterol concentration", "setting": "compound A-5 2.0 mg/kg/day, three weeks of treatment", "result": 13, "unit": "%"},
      {"measurement": "decrease in serum total cholesterol compared to the initial value at Week 0", "setting": "compound A-5 4 mg/kg/day for four weeks (beginning after Week 4), Week 8", "result": 23, "unit": "%"},
      {"measurement": "% change in serum total cholesterol compared to the pretreatment value of each group", "setting": "compound A-5 6.0 mg/kg/day per os, Week 1", "result": "(−19) %"},
      {"measurement": "SERUM TOTAL CHOLESTEROL", "setting": "compound A-5 6.0 mg/kg/day per os, Week 1, mean ± SEM", "result": "128 ± 11^3 mg/dL"},
      {"measurement": "% change in serum total cholesterol compared to the pretreatment value of each group", "setting": "compound A-5 6.0 mg/kg/day per os, Week 2", "result": "(−22) %"},
      {"measurement": "SERUM TOTAL CHOLESTEROL", "setting": "compound A-5 6.0 mg/kg/day per os, Week 2, mean ± SEM", "result": "124 ± 11^3 mg/dL"},
      {"measurement": "% change in serum total cholesterol compared to the pretreatment value of each group", "setting": "compound A-5 6.0 mg/kg/day per os, Week 3", "result": "(−24) %"},
      {"measurement": "SERUM TOTAL CHOLESTEROL", "setting": "compound A-5 6.0 mg/kg/day per os, Week 3, mean ± SEM", "result": "120 ± 11^3 mg/dL"},
      {"measurement": "decrease in serum total cholesterol concentration", "setting": "compound A-5 6.0 mg/kg/day, one week of treatment", "result": 19, "unit": "%"},
      {"measurement": "decrease in serum total cholesterol concentration", "setting": "compound A-5 6.0 mg/kg/day, three weeks of treatment", "result": 24, "unit": "%"},
      {"measurement": "% change from Week 0 in total serum cholesterol", "setting": "compound A-5 monotherapy 4.0 mg/kg/day, dosed Weeks 5-8, Week 5", "result": "(−12) %"},
      {"measurement": "TOTAL SERUM CHOLESTEROL", "setting": "compound A-5 monotherapy 4.0 mg/kg/day, dosed Weeks 5-8, Week 5, mean ± SEM", "result": "123 ± 9", "unit": "mg/dL"},
      {"measurement": "% change from Week 0 in total serum cholesterol", "setting": "compound A-5 monotherapy 4.0 mg/kg/day, dosed Weeks 5-8, Week 6", "result": "(−18) %"},
      {"measurement": "TOTAL SERUM CHOLESTEROL", "setting": "compound A-5 monotherapy 4.0 mg/kg/day, dosed Weeks 5-8, Week 6, mean ± SEM", "result": "115 ± 8 [a] mg/dL"},
      {"measurement": "% change from Week 0 in total serum cholesterol", "setting": "compound A-5 monotherapy 4.0 mg/kg/day, dosed Weeks 5-8, Week 7", "result": "(−18) %"},
      {"measurement": "TOTAL SERUM CHOLESTEROL", "setting": "compound A-5 monotherapy 4.0 mg/kg/day, dosed Weeks 5-8, Week 7, mean ± SEM", "result": "114 ± 6 [a] mg/dL"},
      {"measurement": "% change from Week 0 in total serum cholesterol", "setting": "compound A-5 monotherapy 4.0 mg/kg/day, dosed Weeks 5-8, Week 8", "result": "(−23) %"},
      {"measurement": "TOTAL SERUM CHOLESTEROL", "setting": "compound A-5 monotherapy 4.0 mg/kg/day, dosed Weeks 5-8, Week 8, mean ± SEM", "result": "107 ±7 mg/dL and 107 ± 7 [a] mg/dL"},
      {"measurement": "% change from Week 0 in total serum cholesterol", "setting": "compound A-5 monotherapy group, dosing terminated after Week 8, Week 9", "result": "(−5) %"},
      {"measurement": "TOTAL SERUM CHOLESTEROL", "setting": "compound A-5 monotherapy group, dosing terminated after Week 8, Week 9, mean ± SEM", "result": "132 ± 7", "unit": "mg/dL"},
      {"measurement": "% change from Week 0 in total serum cholesterol", "setting": "compound A-5 monotherapy group, dosing terminated after Week 8, Week 10", "result": "(−4) %"},
      {"measurement": "TOTAL SERUM CHOLESTEROL", "setting": "compound A-5 monotherapy group, dosing terminated after Week 8, Week 10, mean ± SEM", "result": "133 ± 10", "unit": "mg/dL"},
      {"measurement": "% change from Week 0 in total serum cholesterol", "setting": "compound A-5 monotherapy group, dosing terminated after Week 8, Week 11", "result": "(−5) %"},
      {"measurement": "TOTAL SERUM CHOLESTEROL", "setting": "compound A-5 monotherapy group, dosing terminated after Week 8, Week 11, mean ± SEM", "result": "132 ± 9", "unit": "mg/dL"},
      {"measurement": "% change from Week 0 in total serum cholesterol", "setting": "compound A-5 monotherapy group, dosing terminated after Week 8, Week 12", "result": "(−2) %"},
      {"measurement": "TOTAL SERUM CHOLESTEROL", "setting": "compound A-5 monotherapy group, dosing terminated after Week 8, Week 12, mean ± SEM", "result": "136 ± 9", "unit": "mg/dL"},
      {"measurement": "% change from Week 0 in total serum cholesterol", "setting": "compound A-5 monotherapy group, dosing terminated after Week 8, Week 13", "result": "(−14) %"},
      {"measurement": "TOTAL SERUM CHOLESTEROL", "setting": "compound A-5 monotherapy group, dosing terminated after Week 8, Week 13, mean ± SEM", "result": "137 ± 9", "unit": "mg/dL"}
    ]}
  ]
}
